In patent US10709790B2, “Chemical conjugates of Evans Blue derivatives and their use in the production of long-acting therapeutics” (THE UNITED STATES OF AMERICA, AS REPRESENTED BY THE …, priority 2015, dated 2020):

Tests used:
blood glucose = experiment: Plasma glucose levels in Type 2 diabetic cynomolgus monkeys; type: in vivo; details: one-time s.c. injection; Abextide II 165 ug/kg, albiglutide 0.9 mg/kg; compared to placebo
Description: (§1) The efficacy and pharmacokinetics of MEB-C3-Cys40-Extendin 4 (Abextide II) was studied in primates. Nine Type 2 diabetic cynomolgus monkeys were separated into 3 groups and each group was injected with one of albiglutide (positive control, 0.9 mg/kg), Abextide II (165 μg/kg), or a saline placebo, as a one-time subcutaneous injection. The structure of Abextide II is shown below.
(§2) Plasma glucose levels and body weight were measured, and an intravenous glucose tolerance test (IVGTT) was also performed to assess the efficacy and pharmacokinetics of the compounds.

plasma glucose = experiment: Intravenous glucose tolerance test (IVGTT) in Type 2 diabetic cynomolgus monkeys; type: in vivo; details: plasma glucose at 0, 5, 15 and 30 min; 2 hours after treatment vs one week before
Description: as §1, §2
Intravenous glucose tolerance test was performed on all animals one week before (baseline) and 2 hours after treatment. […] The areas under curve (AUCs) of the plasma glucose level at 0, 5, 15 and 30 min were calculated to quantify IVGTT.

Q: For Albiglutide, which “reduction of blood glucose level” value (blood glucose) is on record?
A: unable to reduce blood glucose level

Q: And the “IVGTT area under curve (AUC) of plasma glucose level versus baseline before treatment” value (plasma glucose)?
A: significant differences were not observed
